Here are results for one compound from the NIST ThermoML archive (doi:10.1016/j.jct.2009.08.017).

± gives the expanded uncertainty stated by the source.

The conditions of series [1]: Crystal; DTA.
Series [2] can be described thus: Molar enthalpy of transition or fusion. Particulars: Crystal; DSC.

As to `Clc1ccc(C(c2ccccc2Cl)C(Cl)Cl)cc1` (configuration not stated) [1,1-dichloro-2-(2-chlorophenyl)-2-(4-chlorophenyl)ethane], in series [1], the Normal melting temperature was found to be 80.00 ± 0.5 °C. In series [2], the “Molar enthalpy of transition or fusion” value was found to be 6.77 ± 0.201 kcal/mol.
